Results published in ChEMBL document CHEMBL5143665, “Discovery and preclinical evaluations of WX-0593, a novel ALK inhibitor targeting crizotinib-resistant mutations” (Bioorg Med Chem Lett, 2022).

Key:
[1] = Clearance in mouse at 1 mg/kg, iv; format: ADME, organism-based; conditions: in vivo
[2] = Volume of distribution at steady state in mouse at 1 mg/kg, iv; format: ADME, organism-based; conditions: in vivo, read-out: Vdss
[3] = Half-life in mouse at 1 mg/kg, iv; format: ADME, organism-based; conditions: in vivo
[4] = Cmax in mouse at 10 mg/kg, po; format: ADME, organism-based; parameters: dose 10 mg/kg, route po; conditions: in vivo
[5] = AUC (0 to last) in mouse at 10 mg/kg, po; format: ADME, organism-based; parameters: time 0 - last, dose 10 mg/kg, route po; conditions: in vivo
[6] = Oral bioavailability in mouse at 10 mg/kg; format: ADME, organism-based; conditions: in vivo
KARPAS-299 = test: cells; conditions: Homo sapiens
Description: Antiproliferative activity against human KARPAS-299 cells harbouring wild type ALK assessed as reduction in cell viability by Celltitre-Glo luminescent assay

BaF3 [7] = test: cells; conditions: Mus musculus
Description: Antiproliferative activity against mouse BaF3 cells harbouring ALK wild type assessed as reduction in cell viability by Celltitre-Glo luminescent assay

BaF3 [8] = test: cells; conditions: Mus musculus; remark: listed apart in the source
Description: Antiproliferative activity against mouse BaF3 cells harbouring ALK L1196M mutant assessed as reduction in cell viability by Celltitre-Glo luminescent assay

BaF3 [9] = test: cells; conditions: Mus musculus; remark: listed apart in the source
Description: Antiproliferative activity against mouse BaF3 cells harbouring ALK C1156Y mutant assessed as reduction in cell viability by Celltitre-Glo luminescent assay

A clearance [1] of 49 mL/min/kg, a Vd [2] of 1.7 L/kg and a half-life [3] of 1.5 h were found for `COc1cc(N2CCC3(CC2)CNC3)ccc1Nc1ncc(Cl)c(Nc2ccccc2P(C)(C)=O)n1` in this work. The Cmax [4] was 113 ng/mL, the AUC(0-t) [5] was 219 ng·h/mL and the bioavailability [6] was 5.2%. It also gave an IC50 (KARPAS-299) of 60 nM.
An IC50 (KARPAS-299) of 15 nM, an IC50 (BaF3 [7]) of 24 nM and an IC50 (BaF3 [8]) of 39 nM were found for `CN1CCC2(CC1)CCN(c1ccc(Nc3ncc(Cl)c(Nc4ccccc4P(C)(C)=O)n3)c(OC(F)F)c1)CC2` in this work. For the same compound, the IC50 (BaF3 [9]) was 36 nM.
